Measurements: patent EP0188887A1, “Tertiary amine compounds” (IMPERIAL CHEMICAL INDUSTRIES PLC, priority 1985, dated 1986)

Columns and labels:
Type in all cases: in vivo
[1] = system: CERCOSPORA ARACHIDICOLA (PEANUT); assay: Foliar fungal disease test on plants (foliar spray plus root drench), Cercospora arachidicola on peanut; conditions: 100 ppm active ingredient sprayed on foliage, root drench approximately 40 ppm a.i./dry soil; applied one or two days before inoculation
Procedure: (§1) The compounds were tested against a variety of foliar fungal diseases of plants. The technique employed was as follows. The plants were grown in John Innes Potting Compost (No 1 or 2) in 4 cm diameter minipots. The test compounds were formulated either by bead milling with aqueous Dispersol T or as a solution in acetone or acetone/ethanol which was diluted to the required concentration immediately before use. For the foliage diseases, the formulations (100 ppm active ingredient) were sprayed on to the foliage and applied to the roots of the plants in the soil. The sprays were applied to maximum retention and the root drenches to a final concentration equivalent to approximately 40 ppm a.i./dry soil. Tween 20, to give a final concentration of 0.05%, was added when the sprays were applied to cereals. For most of the tests the compound was applied to the soil (roots) and to the foliage (by spraying) one or two days before the plant was inoculated with the disease. An exception was the test on Erysiphe graminis in which the plants were inoculated 24 hours before treatment. Foliar pathogens were applied by spray as spore suspensions onto the leaves of test plants. After inoculation, the plants were put into an appropriate environment to allow infection to proceed and then incubated until the disease was ready for assessment. The period between inoculation and assessment varied from four to fourteen days according to the disease and environment. The disease control was recorded by the following grading:- • 4 = no disease • 3 = trace - 5% of disease on untreated plants • 2 = 6-25% of disease on untreated plants • 1 = 26-59% of disease on untreated plants • 0 = 60-100% of disease on untreated plants

[2] = system: PUCCINIA RECONDITA (WHEAT); assay: Foliar fungal disease test on plants (foliar spray plus root drench), Puccinia recondita on wheat; conditions: 100 ppm active ingredient sprayed on foliage, root drench approximately 40 ppm a.i./dry soil; applied one or two days before inoculation
Procedure: as §1

[3] = system: ERYSIPHE GRAMINIS (BARLEY); assay: Foliar fungal disease test on plants (foliar spray plus root drench), Erysiphe graminis on barley; conditions: 100 ppm active ingredient sprayed on foliage, root drench approximately 40 ppm a.i./dry soil; plants inoculated 24 hours before treatment
Procedure: as §1

[4] = system: VENTURIA INAEQUALIS (APPLE); assay: Foliar fungal disease test on plants (foliar spray plus root drench), Venturia inaequalis on apple; conditions: 100 ppm active ingredient sprayed on foliage, root drench approximately 40 ppm a.i./dry soil; applied one or two days before inoculation
Procedure: as §1

Compound | disease control grading, CERCOSPORA ARACHIDICOLA (PEANUT) [1] | disease control grading, PUCCINIA RECONDITA (WHEAT) [2] | disease control grading, ERYSIPHE GRAMINIS (BARLEY) [3] | disease control grading, VENTURIA INAEQUALIS (APPLE) [4]
C[C@@H]1CN(C[C@@H]2C[C@H]2c2ccc(C(C)(C)C)cc2)C[C@H](C)O1 (relative stereo) [Compound 4, 4-[2-(p-t-butylphenyl)-trans-cyclopropylmethyl]-2,6-cis-dimethylmorpholine] | 0 (0 = 60-100% of disease on untreated plants) | 3 (3 = trace - 5% of disease on untreated plants) | 4 (4 = no disease) | 3 (3 = trace - 5% of disease on untreated plants)
C[C@@H]1CN(C[C@@H]2C[C@@]2(C)c2ccc(C(C)(C)C)cc2)C[C@H](C)O1 (relative stereo) [Compound 15] |  | 3 (3 = trace - 5% of disease on untreated plants) | 4 (4 = no disease) | 3 (3 = trace - 5% of disease on untreated plants)
CC(C)(C)c1ccc(C2CC2CC2CCNCC2)cc1 (stereo not drawn) [Compound 1, 4-[2-(p-t-butylphenyl)-cyclopropylmethyl]-piperidine] | 1 (1 = 26-59% of disease on untreated plants) | 4 (4 = no disease) | 4 (4 = no disease) | 0 (0 = 60-100% of disease on untreated plants)
CC(C)(C)c1ccc(C2C(CN3CCOCC3)C2(C)C)cc1 (stereo not drawn) [Compound 8, 4-[2-(p-t-butylphenyl)-3,3-dimethylcyclopropylmethyl]-morpholine] | 3 (3 = trace - 5% of disease on untreated plants) | 0 (0 = 60-100% of disease on untreated plants) | 4 (4 = no disease) | 3 (3 = trace - 5% of disease on untreated plants)
